Assay results: article PMC3083694, “Effects of Intermediates between Vitamins K2 and K3 on Mammalian DNA Polymerase Inhibition and Anti-Inflammatory Activity” (International Journal of Molecular Sciences, 2011)

What was measured:
Human DNA polymerase γ = biological target: T1, Human DNA polymerase γ (Homo sapiens, UniProt P54098); set-up: method as in PMID 18312466, PMID 18698499, PMID 20030669, PMID 20881898; conditions: earlier work of the authors; cited from earlier work
T1 construct: made in house
T1 sequence (P54098 1-1239): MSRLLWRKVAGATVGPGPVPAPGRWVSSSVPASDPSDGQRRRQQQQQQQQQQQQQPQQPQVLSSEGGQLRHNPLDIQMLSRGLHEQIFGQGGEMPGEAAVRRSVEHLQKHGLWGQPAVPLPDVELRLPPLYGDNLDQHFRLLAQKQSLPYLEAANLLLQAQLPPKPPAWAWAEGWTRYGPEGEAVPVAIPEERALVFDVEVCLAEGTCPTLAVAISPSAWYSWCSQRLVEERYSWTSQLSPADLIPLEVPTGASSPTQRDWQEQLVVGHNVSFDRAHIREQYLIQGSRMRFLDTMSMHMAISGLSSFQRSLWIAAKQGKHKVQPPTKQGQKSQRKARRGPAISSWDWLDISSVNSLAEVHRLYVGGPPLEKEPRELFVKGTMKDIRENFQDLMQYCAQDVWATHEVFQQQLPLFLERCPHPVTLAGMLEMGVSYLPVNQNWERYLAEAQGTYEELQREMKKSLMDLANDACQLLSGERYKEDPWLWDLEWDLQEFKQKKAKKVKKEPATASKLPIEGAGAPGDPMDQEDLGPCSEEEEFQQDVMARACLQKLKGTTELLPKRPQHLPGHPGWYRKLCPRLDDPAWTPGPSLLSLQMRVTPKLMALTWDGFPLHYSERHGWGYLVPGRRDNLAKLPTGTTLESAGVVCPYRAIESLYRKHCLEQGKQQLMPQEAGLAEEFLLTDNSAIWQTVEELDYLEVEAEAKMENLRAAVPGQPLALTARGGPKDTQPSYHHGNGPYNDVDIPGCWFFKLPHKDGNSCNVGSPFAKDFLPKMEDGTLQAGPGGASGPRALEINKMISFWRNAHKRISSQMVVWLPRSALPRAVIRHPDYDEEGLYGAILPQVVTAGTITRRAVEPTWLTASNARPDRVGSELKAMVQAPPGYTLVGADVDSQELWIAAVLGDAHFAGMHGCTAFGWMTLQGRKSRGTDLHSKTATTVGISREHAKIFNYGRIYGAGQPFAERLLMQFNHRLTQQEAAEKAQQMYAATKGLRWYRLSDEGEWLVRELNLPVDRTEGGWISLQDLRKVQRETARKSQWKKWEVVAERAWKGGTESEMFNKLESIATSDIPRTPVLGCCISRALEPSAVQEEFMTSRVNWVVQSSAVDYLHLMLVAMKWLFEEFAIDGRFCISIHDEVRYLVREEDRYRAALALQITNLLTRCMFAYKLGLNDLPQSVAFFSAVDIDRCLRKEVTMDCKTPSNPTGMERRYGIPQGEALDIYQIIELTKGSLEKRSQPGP

Human DNA polymerase ɛ = biological target: T2, Human DNA polymerase ɛ (Homo sapiens, UniProt Q07864); assay: DNA polymerase activity assay, human pol ɛ; format: biochemical; conditions: B-family pol; read-out: IC50 Value of MK-2, Human DNA polymerase ɛ
T2 construct: made in house
Method: (§1) Pols from mammals, a fish (cherry salmon), an insect (fruit fly) and a plant (cauliflower) were purified, and prokaryotic pols and other DNA metabolic enzymes, such as T7 RNA polymerase, T4 polynucleotide kinase and bovine deoxyribonuclease I, were purchased as described in our previous report. The activities of all pols and other DNA metabolic enzymes were measured as described in previous reports.
(§2) The components of the pol assay were poly(dA)/oligo(dT)18 and dTTP as the DNA template-primer and 2′-deoxyribonucleoside 5′-triphosphate (dNTP) substrate, respectively. VK2, VK3, and their synthesized derivatives (i.e., MK-3, MK-2 and MK-1) were dissolved in dimethyl sulfoxide (DMSO) at various concentrations and sonicated for 30 s. The sonicated samples (4 μL) were mixed with 16 μL of each pol enzyme (final amount, 0.05 units) in 50 mM Tris-HCl (pH 7.5) containing 1 mM dithiothreitol, 50% glycerol and 0.1 mM EDTA, and kept at 0 °C for 10 min. […] Activity without the inhibitor was considered to be 100%, and the activity remaining at each concentration of inhibitor was determined relative to this value. […]

Human DNA polymerase η = biological target: T3, Human DNA polymerase η (Homo sapiens, UniProt Q9Y253); assay: DNA polymerase activity assay, human pol η; format: biochemical; conditions: Y-family pol; read-out: IC50 Value of MK-2, Human DNA polymerase η
T3 construct: made in house
Method: as §1, §2

Mouse DNA polymerase ι = biological target: T4, Mouse DNA polymerase ι (Mus musculus, UniProt Q6R3M4); assay: DNA polymerase activity assay, mouse pol ι; format: biochemical; conditions: Y-family pol; read-out: IC50 Value of MK-2, Mouse DNA polymerase ι
T4 construct: made in house
Method: as §1, §2

[1] = biological target: Calf primase of DNA polymerase α (Bos taurus, UniProt A0A3Q1MF00); assay: DNA metabolic enzyme assay, calf primase of pol α; format: biochemical; conditions: other DNA metabolic enzyme; read-out: IC50 Value of MK-2, Calf primase of DNA polymerase α
Method: as §1

[2] = test system: LPS-induced TNF-α production in serum; assay: In vivo LPS-induced inflammatory experiment, serum TNF-α; set-up: species or system mouse; conditions: female C57BL/6 mice; 100 mg/kg BW intraperitoneal, 30 min before LPS 250 μg/kg BW i.p.; serum 1 h after LPS
Method: All animal studies were performed according to the guidelines outlined in the “Care and Use of Laboratory Animals” of Kobe University. The animals were anesthetized with pentobarbital before undergoing cervical dislocation. Female 8-week-old C57BL/6 mice that had been bred in-house with free access to food and water were used for all experiments. All of the mice were maintained under a 12-h light/dark cycle and housed at a room temperature of 25 °C.
Mice were intraperitoneally injected with 200 μL of MK-2 dissolved in corn oil at 100 mg/kg body weight (BW), or 200 μL of corn oil as a vehicle control. After 30 min, the mice were intraperitoneally injected with 200 μL of 250 μg/kg BW LPS dissolved in PBS or 200 μL of PBS as a vehicle control. After 1 h, the mice were killed, and blood samples were collected. The blood serum was separated by centrifugation at 15,000 × g for 10 min at 4 °C, and the TNF-α level in the serum was measured by ELISA.

T3 sequence (Q9Y253 1-511 limits assumed): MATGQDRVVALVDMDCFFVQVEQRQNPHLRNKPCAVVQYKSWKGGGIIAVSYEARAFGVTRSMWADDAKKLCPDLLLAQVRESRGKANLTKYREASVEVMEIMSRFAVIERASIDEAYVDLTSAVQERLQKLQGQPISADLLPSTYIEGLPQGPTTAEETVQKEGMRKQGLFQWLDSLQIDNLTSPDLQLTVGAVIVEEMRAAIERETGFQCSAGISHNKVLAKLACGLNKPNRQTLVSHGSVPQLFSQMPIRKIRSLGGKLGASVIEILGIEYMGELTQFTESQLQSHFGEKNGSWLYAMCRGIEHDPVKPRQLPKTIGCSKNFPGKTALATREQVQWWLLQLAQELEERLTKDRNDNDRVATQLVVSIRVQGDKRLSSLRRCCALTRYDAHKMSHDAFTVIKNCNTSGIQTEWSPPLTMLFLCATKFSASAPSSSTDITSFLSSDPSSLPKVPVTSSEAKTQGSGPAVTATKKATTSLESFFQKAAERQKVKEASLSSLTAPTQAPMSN
Sequence of Calf primase of DNA polymerase α (A0A3Q1MF00 entry or part of it): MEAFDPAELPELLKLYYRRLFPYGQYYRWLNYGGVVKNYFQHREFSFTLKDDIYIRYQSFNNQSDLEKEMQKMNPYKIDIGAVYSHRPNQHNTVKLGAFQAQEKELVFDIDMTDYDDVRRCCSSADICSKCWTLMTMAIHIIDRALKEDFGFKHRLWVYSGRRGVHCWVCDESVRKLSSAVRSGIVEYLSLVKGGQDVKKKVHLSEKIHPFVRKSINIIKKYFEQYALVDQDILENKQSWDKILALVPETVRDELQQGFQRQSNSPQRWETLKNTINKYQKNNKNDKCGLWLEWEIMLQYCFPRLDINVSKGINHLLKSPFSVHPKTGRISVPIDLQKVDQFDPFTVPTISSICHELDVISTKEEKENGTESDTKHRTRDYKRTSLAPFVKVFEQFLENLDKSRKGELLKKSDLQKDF
Sequence of Calf primase of DNA polymerase α (A0AAA9THK8 entry or part of it, further chain): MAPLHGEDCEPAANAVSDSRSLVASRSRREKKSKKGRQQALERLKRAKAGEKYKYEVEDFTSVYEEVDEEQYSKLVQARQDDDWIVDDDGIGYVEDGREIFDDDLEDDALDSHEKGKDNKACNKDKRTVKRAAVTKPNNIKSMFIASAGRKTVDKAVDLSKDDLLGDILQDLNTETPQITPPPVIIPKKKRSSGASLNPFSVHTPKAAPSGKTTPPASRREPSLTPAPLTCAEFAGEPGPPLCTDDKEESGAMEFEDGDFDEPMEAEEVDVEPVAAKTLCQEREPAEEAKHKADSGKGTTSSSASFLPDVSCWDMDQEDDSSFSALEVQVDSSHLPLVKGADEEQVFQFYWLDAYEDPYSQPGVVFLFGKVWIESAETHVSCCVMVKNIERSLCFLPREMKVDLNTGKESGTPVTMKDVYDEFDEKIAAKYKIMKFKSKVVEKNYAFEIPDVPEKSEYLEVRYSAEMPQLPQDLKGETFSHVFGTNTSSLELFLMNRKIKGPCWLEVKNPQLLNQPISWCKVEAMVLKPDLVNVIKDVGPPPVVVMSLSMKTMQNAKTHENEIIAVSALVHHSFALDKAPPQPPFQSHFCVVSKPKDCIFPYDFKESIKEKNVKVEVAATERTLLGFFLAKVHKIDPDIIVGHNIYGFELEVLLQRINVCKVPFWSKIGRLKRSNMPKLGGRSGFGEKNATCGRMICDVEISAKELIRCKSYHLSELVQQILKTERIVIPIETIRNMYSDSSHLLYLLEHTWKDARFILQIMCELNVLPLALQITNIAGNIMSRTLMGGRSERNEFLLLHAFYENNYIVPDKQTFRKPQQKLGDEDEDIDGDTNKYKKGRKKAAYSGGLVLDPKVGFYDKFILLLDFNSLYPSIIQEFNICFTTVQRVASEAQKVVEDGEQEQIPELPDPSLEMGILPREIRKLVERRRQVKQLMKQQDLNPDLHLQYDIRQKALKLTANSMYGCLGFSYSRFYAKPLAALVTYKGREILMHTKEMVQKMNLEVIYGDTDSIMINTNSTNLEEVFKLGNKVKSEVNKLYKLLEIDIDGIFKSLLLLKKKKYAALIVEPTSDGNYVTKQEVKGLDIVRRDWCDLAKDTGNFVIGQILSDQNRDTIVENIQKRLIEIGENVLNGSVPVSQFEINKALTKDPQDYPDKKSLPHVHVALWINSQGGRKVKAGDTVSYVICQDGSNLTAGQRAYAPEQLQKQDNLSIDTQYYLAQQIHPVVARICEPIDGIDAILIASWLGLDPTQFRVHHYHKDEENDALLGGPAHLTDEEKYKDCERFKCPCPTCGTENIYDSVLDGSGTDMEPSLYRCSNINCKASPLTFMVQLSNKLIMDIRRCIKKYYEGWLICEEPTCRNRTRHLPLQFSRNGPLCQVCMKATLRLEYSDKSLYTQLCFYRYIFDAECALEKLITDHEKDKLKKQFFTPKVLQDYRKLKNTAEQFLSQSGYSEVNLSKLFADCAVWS
Sequence of Calf primase of DNA polymerase α (A0JNF4 entry or part of it, further chain): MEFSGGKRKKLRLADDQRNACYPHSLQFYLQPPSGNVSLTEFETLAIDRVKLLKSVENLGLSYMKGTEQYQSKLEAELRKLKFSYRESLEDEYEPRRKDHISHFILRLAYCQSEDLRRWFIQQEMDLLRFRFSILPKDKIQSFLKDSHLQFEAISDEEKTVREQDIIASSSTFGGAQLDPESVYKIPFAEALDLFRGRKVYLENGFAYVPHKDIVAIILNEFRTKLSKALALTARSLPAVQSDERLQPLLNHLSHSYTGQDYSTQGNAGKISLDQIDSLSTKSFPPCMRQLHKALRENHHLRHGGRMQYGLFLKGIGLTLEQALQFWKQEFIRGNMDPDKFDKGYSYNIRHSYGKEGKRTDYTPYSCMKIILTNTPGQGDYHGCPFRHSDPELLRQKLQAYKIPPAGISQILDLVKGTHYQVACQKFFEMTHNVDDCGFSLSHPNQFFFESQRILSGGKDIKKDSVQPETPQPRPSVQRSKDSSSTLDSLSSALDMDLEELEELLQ
Sequence of Calf primase of DNA polymerase α (Q58D13 whole entry, further chain): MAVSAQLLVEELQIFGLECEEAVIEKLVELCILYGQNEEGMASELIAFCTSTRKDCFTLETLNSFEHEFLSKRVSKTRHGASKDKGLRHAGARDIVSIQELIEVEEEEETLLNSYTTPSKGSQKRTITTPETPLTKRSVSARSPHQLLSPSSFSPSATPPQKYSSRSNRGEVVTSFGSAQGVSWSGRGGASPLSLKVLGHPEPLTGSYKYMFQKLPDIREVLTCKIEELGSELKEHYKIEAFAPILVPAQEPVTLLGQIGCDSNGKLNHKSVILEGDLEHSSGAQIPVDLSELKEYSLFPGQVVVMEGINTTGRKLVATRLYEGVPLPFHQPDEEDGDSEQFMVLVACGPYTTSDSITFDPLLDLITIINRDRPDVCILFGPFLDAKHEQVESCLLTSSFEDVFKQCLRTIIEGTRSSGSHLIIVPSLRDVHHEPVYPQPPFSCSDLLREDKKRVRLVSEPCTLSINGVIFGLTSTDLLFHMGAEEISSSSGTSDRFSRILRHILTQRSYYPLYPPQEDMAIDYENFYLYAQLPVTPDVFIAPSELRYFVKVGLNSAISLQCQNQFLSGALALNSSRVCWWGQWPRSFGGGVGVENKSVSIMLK
T4 sequence (Q6R3M4 whole entry): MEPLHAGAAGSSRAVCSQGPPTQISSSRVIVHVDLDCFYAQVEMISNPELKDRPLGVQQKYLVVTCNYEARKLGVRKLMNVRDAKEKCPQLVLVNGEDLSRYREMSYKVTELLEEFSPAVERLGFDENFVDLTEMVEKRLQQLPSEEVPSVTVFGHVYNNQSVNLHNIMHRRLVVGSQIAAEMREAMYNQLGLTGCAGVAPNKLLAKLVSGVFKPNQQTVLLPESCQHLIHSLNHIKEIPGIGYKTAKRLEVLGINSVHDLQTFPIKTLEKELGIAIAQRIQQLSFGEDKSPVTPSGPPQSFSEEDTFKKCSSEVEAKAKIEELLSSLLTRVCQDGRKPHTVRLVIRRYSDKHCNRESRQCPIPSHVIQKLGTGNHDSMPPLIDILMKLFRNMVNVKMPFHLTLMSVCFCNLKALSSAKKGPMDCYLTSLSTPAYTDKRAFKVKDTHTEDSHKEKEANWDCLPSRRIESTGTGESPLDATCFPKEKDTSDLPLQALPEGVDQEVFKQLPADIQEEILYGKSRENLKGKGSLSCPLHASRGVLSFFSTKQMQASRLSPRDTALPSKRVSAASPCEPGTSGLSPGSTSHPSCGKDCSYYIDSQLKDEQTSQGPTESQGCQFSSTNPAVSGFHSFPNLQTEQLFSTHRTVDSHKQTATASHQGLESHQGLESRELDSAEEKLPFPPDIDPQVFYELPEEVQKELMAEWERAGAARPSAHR

Row | SMILES | Inhibitor of human pol γ (Human DNA polymerase γ) | IC50 (Human DNA polymerase ɛ) [µM] | IC50 (Human DNA polymerase η) [µM] | IC50 (Mouse DNA polymerase ι) [µM] | IC50 [1] [µM] | Decrease of LPS-induced serum TNF-α production [2] [%]
1 | CC(C)=CCC/C(C)=C/CC/C(C)=C/CC/C(C)=C/CC1=C(C)C(=O)c2ccccc2C1=O [MK-4, menaquinone 4, reference compound] | not | – | – | – | – | –
2 | CC(C)=CCC/C(C)=C/CC1=C(C)C(=O)c2ccccc2C1=O [MK-2] | – | 28.2 ± 1.6 | 37.8 ± 2.2 | 39 ± 2.3 | > 200 | 83.2
